Measured values from patent US5482923A, “Heparin neutralization with platelet factor 4 fragments” (Repligen Corporation, priority 1993, dated 1996).
Entries after “also recorded” stand apart in the source; their conditions may differ.

Key:
[1] = test system: thrombin; test: Prevention of heparin inhibition of thrombin, conditions similar to the Factor Xa experiments; format: biochemical; conditions: for ability to prevent heparin inhibition of thrombin: in vitro; for prevention of heparin inhibition of thrombin: 1 μM
Text: (§1) The lysine rich region of PF4 (residues 61-66) is also the domain associated with the binding of heparin by PF4. Heparin is known to play a role in modulating anglogenesis, which can also be affected by protamine, another well characterized heparin-binding protein. To assess the ability of PF4-based synthetic peptides to bind heparin, we assayed the activity of coagulation-cascade enzymes which are inhibited by heparin. The Factor Xa assay used here has previously been described in Denton et al., Biochem. J., 209:455-460 (1983).
In experiments carried out under conditions similar to the Factor Xa experiments, thrombin was inhibited 99% by 0.25 units of heparin.

[2] = test system: Factor Xa; test: Factor Xa assay: prevention of heparin inhibition of Factor Xa; format: biochemical; conditions: for ability to prevent heparin inhibition of Factor Xa: in vitro; for restoration of Factor Xa activity: low concentrations
Text: as §1
PF4 isolated from platelets and recombinant E. coli cells were compared for their abilities to prevent heparin inhibition of Factor Xa (essential for the production of thrombin) in vitro.
The abilities of protamine and rPF4 to prevent heparin-inhibition of the coagulation enzyme Factor Xa were compared. The details of the assay are described by Denton et al, 1983, Biochem. J. 209:455. In the Factor Xa assay, 0.5 units of heparin inhibited enzymatic activity almost 90%.
Similar studies and results may be obtained using certain fragments of PF4 or rPF4 that include the heparin binding region, residues 61-66.

[3] = test system: normal human plasma; test: Neutralization of heparin in human plasma (APTT); conditions: 1 unit/ml of heparin; for restoring the APTT to its heparin-free level: added during the incubation before activated thromboplastin
Text: Neutralization of heparin in human plasma was also examined. The activated partial thromboplastin time (APTT) of normal human plasma was increased from its base level of approximately 30 seconds to 195 seconds by the addition of 1 unit/ml of heparin.

[4] = test system: Sprague Dawley rats; test: In vivo effect on platelet count, white blood cell count and hematocrit in heparinized rats; parameters: species or system rat; conditions: for platelet count, % of initial: after heparin followed by neutralizing agent, FIGS. 4 and 5; for hematocrit levels: conditions as for FIGS. 1 and 2; for change of platelet and white blood cell counts: heparin 100 units/100 g followed by protamine sulfate 100 μg/100 g or rPF4 7.5 μg/g; for white blood cell count / platelet count: t=10 minutes, 8 min after agent, protamine sulfate 1 ug/g, PF4 7.5 ug/g; for white blood cell count: protamine sulfate group over 5 at t=0; for platelet count: t=0: protamine sulfate over 800, rPF4 700
Description: (§2) In Vivo experiments were performed on rats to compare the heparin neutralizing activity of protamine and PF4 and to investigate the effect of PF4 on platelet and white blood cell count.
(§3) Sprague Dawley rats (225 g) were anesthetized with pentobarbital, the trachea was intubated, and the right femoral vein and carotid artery were cannulated. The intravenous infusion of heparin was followed by infusion of either protamine or rPF4. Arterial blood samples were taken prior to and immediately after heparin infusion and at several time points following the infusion of the neutralizing agent. Controls were conducted with Ringer's solution in place of heparin and the experimental agents. Samples were used for the following determinations: clotting time, platelet count, and white blood cell count.
(§4) Referring to FIGS. 1 and 2, data are shown from a typical experiment comparing the platelet count, white blood cell count and the APTT in rats when injected with heparin followed by protamine sulfate (FIG. 1) and when injected with heparin followed by rPF4 (FIG. 2). In these Figs., heparin was injected at t=0 and either protamine sulfate or rPF4 injected two minutes thereafter (t=2 minutes). The dosages used were: heparin 1 unit/g animal wt.; protamine sulfate 1 ug/g animal wt.; and PF4 7.5 ug/g animal wt.
Experiments were also conducted to investigate hematocrit levels under conditions as described with respect to FIGS. 1 and 2. No change in hematocrit levels were observed when either PF4 or protamine were used for heparin neutralization.
Referring now to FIGS. 3 to 5, statistical bar graph data are shown comparing APTT, platelet count, (PC) and white blood cell (WBC) count in rats injected with a control solution, Ringers solution (FIG. 3), injected with heparin followed by protamine sulfate (FIG. 4) and injected with heparin followed by rPF4 (FIG. 5). The data included control rats, five rats injected with heparin followed by protamine sulfate and two rats injected with heparin followed by rPF4.
Samples A were taken before injection; samples B, 2 min after heparin injection; samples C, 10 min after heparin and 8 min after protamine sulfate injection; and samples D, 18 min after heparin injection. Data represent mean values and S.E.M. from experiments except that white blood cells and platelets were counted only in 3 samples taken at 2 and at 18 min after heparin injection. […] The decrease was statistically significant (p<0.01) as compared to samples obtained before heparin injection.
Data represent mean values and S.E.M. from 2 experiments for samples taken at times A-D as indicated in the discussion above with respect to FIG. 4.

[5] = test system: Sprague Dawley rats; test: In vivo heparin neutralization in rats (APTT); parameters: species or system rat; conditions: for APTT after neutralizing agent: heparin 1 unit/g at t=0, agent at t=2 min, protamine sulfate 1 ug/g, PF4 7.5 ug/g, read at t=10 min
Description: as §2, §3, §4
Referring now to FIGS. 3 to 5, statistical bar graph data are shown comparing APTT, platelet count, (PC) and white blood cell (WBC) count in rats injected with a control solution, Ringers solution (FIG. 3), injected with heparin followed by protamine sulfate (FIG. 4) and injected with heparin followed by rPF4 (FIG. 5). […]
Samples A were taken before injection; samples B, 2 min after heparin injection; samples C, 10 min after heparin and 8 min after protamine sulfate injection; and samples D, 18 min after heparin injection. Data represent mean values and S.E.M. from experiments except that white blood cells and platelets were counted only in 3 samples taken at 2 and at 18 min after heparin injection. […]

[6] = test system: Sprague Dawley rats; test: In vivo effect on platelet count, white blood cell count and hematocrit in heparinized rats; parameters: species or system rat; conditions: low doses of rPF4 (150 μg/100g); three experiments

| Substance | ability to prevent heparin inhibition of thrombin [1] | ability to prevent heparin inhibition of Factor Xa [2] | inhibition of thrombin ([1]; 0.25 units of heparin) | inhibition of Factor Xa enzymatic activity ([2]; 0.5 units of heparin) | activated partial thromboplastin time (APTT) ([3]; base level approximately 30 seconds) | platelet count, % of initial [4] | WBC count ([4]; after heparin followed by protamine sulfate, FIG. 4) | hematocrit levels [4] | respiratory problems ([4]; heparin 1 unit/g followed by protamine sulfate 1 ug/g) | change of platelet and white blood cell counts [4] | white blood cell count [4] | platelet count [4] | prevention of heparin inhibition of thrombin ([1]; 0.25 units of heparin) | molar dose responses, rPF4 compared with protamine ([1]; 0.25 units of heparin) | restoration of Factor Xa activity ([2]; 0.5 units of heparin) | restoring the APTT to its heparin-free level [3] | APTT after neutralizing agent [5] | preventing Factor Xa inhibition, compared with protamine ([2]; concentrations greater than 1 μM, 0.5 units of heparin) | neutralization of the anticoagulant effect of heparin ([5]; low doses of rPF4 (150 μg/100g), three experiments) | effect on platelets and white blood cells [6] |
| --- | --- | --- | --- | --- | --- | --- | --- | --- | --- | --- | --- | --- | --- | --- | --- | --- | --- | --- | --- | --- |
| C-13: C-13 peptide of PF4, a PF4-based synthetic peptide (PLYKKIIKKLLES; UniProt P02776 89-101, looked up, fragment) | unable to prevent the inhibition of thrombin even at concentrations ten times that of an effective level of rPF4 | – | – | – | – | – | – | – | – | – | – | – | – | – | – | – | – | – | – | – |
| C-41: The 41 amino acid C-terminal peptide of PF4 (IKAGPHCPTAQLIATLKNGRKICLDLQAPLYKKIIKKLLES; UniProt P02776 61-101, looked up, fragment) | prevented heparin inhibition less effectively | prevented heparin inhibition less effectively; also recorded: demonstrated the ability to neutralize heparin in vitro | – | – | – | – | – | – | – | – | – | – | – | – | – | – | – | – | – | – |
| heparin [reference compound] | – | – | 99% | ~90% | 195 s | – | – | – | – | – | – | – | – | – | – | – | – | – | – | – |
| protamine | able to prevent the heparin inhibition of thrombin and Factor Xa at approximately equimolar concentrations | able to prevent the heparin inhibition of thrombin and Factor Xa at approximately equimolar concentrations | – | – | – | 48±12.2% | decreased | No change | These rats also had respiratory problems | significant decrease of white blood cell count and platelet count; also recorded: drop in platelet and white blood cell counts | less than 3 ×10^3 /μl | less than 500 ×10^3 /μl | completely prevented heparin inhibition | no significant difference in their molar dose responses | partially restored Factor Xa activity | equally effective in restoring the APTT to its heparin-free level | decrease in the APTT to approximately normal levels after about 10 minutes | – | – | – |
| rPF4: Recombinant native sequence human platelet factor 4, 70 residues, produced in E. coli as a fusion protein and cleaved with CNBr | able to prevent the heparin inhibition of thrombin and Factor Xa at approximately equimolar concentrations | able to prevent the heparin inhibition of thrombin and Factor Xa at approximately equimolar concentrations | – | – | – | 89±4.9% | – | No change | – | did not lead to the extensive depletion of platelet and white blood cells; also recorded: did not produce a statistical decrease in platelet and white blood count | about 4 ×10^3 /μl | about 500 ×10^3 /μl | completely prevented heparin inhibition | no significant difference in their molar dose responses | partially restored Factor Xa activity | equally effective in restoring the APTT to its heparin-free level | restoration of normal APTT levels | clearly more effective in preventing Factor Xa inhibition | partially neutralized | no effect on platelets and white blood cells |
